Common to all, as to assay type: biochemical
In one assay the target is T1, PP2A (Homo sapiens, UniProt P67775).
T1 construct: purified from human red blood cells; purchased Merck Millipore; host or cells: human red blood cells
Description: DiFMUP assay for PP2A. Conditions: 0.05 U PP2A, 30 min preincubation, 25°C, no BSA, mean ± SEM (n = 3–5), read-out: IC50 (Ki) PP2A. As for the experimental part: (§1) Fig 2 Effect of polyphenolic compounds 8 (A), 9 (B), 10 (C) and 11 (D) on the phosphatase activity of PRL-1, PRL-2, PRL-3, PP1, and PP2A. Proteins were incubated for 30 min with 0–1000 μM of the corresponding procyandin 8–11. Phosphatase activity was measured in the presence of DiFMUP at 25°C using the concentration corresponding to the KM of each protein. The KM for PRLs was determined separately (PRL-3 = 21 μM, PRL-2 and PRL-1 = 24 μM). The KM for PP1 (91 μM) and for PP2A (100 μM) was taken from the literature. Protein concentrations are 50 nM for all PRLs and 2 mU for PP1 and 0.05 U for PP2A (see the Experimental Procedures). Phosphatase activity in the absence of inhibitors was set as 100%. Data represent means ± standard errors of the mean (n = 3–5).
BSA, which is usually supplemented to the assay buffer for stabilizing the PPs was however excluded, as BSA is known to form complexes with polyphenolic compounds [40–42] and thus would decrease the concentrations of the inhibitor in the assay. […] In contrast, the phosphatase activity of PP2A was suppressed to a much lesser extent with weak (for trimer 9 and hexamer 11) and strong statistical significance (dimer 8 and tetramer 10). Thus our results corroborate the data reported previously.
Chemicals and vendors were as follows: Synthesis of Procyanidins (dimer to dodecamer) was done as previously reported. EGCG, EGC, ECG and EC were synthesized as previously reported or purchased from Sigma. (+)-Catechin and 3-(4,5-dimethylthiazol-2-yl)-2,5-diphenyltetrazolium bromide (MTT) were obtained from Sigma. 6,8-Difluoro-4-Methylumbelliferyl Phosphate (DiFMUP), propidium iodide and calcein AM were from lifescience technologies. Cell dissociation solution (10X) was purchased from amsbio. PP1c (recombinant from E. coli) was purchased from NewEngland Biolabs and PP2A (purified from human red blood cells, contains different subunits according to manufacturer) from Merck Millipore. Transwell plates (BRANDplates) and insert stripes for the migration assay were purchased from Brand GmbH. Black 96 well plates (96F Nunclon Delta) were purchased from Thermo Scientific. Transparent 96 well assay plates with UV transparent bottom were purchased from Corning Inc. Wound healing experiments were carried out with μ-dish 35 mm culture inserts, which were purchased from Ibidi.
DiFMUP assay for PP2A: In a final reaction volume of 100 μL PP2A (0.05 U final concentration, according to manufacturer’s instructions) were incubated with decreasing concentrations of the inhibitory polyphenols for 30 minutes at 25°C. The assay buffer contained 50 mM TrisCl (pH 7.5), 250 mM NaCl, 0.1 mM EDTA, 1 mM MnCl2, and 2 mM dithiothreitol (DTT). […] Monitoring of the fluorescent dephosphorylation product was monitored and data analyzed as described above.

For another assay, the target named is T2, PRL-3 (Homo sapiens, UniProt O75365).
T2 construct: His-TEV (cleaved yes); made in house
T2 sequence (O75365 whole entry): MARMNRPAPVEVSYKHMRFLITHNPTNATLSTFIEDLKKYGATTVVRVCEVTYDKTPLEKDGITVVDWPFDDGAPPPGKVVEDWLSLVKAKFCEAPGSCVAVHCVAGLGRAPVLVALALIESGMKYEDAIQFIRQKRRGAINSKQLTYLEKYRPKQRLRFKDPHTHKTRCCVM
Description: DiFMUP phosphatase activity assay for PRLs. Conditions: 50 nM PRL-3, 30 min preincubation, 25°C, 21 μM DiFMUP; mean ± SEM (n = 3–5); read-out: IC50 (Ki) PRL-3. On the procedure:
Biochemical phosphatase activity measurements were carried out in the presence of different concentrations of various polyphenols, compounds 1–11 (Fig 1), using recombinant PRL-3 and 6,8-difluoro-4-methylumbelliferyl phosphate (DiFMUP) as a fluorogenic substrate (see the experimental procedures). We observed that the monomeric epicatechins EGC and EC inhibit PRL-3 only weakly, with a slightly better activity of EGC, which bears three hydroxyl groups at the B-ring. […] In general, as a basic structure activity-relationship the following trend was observed: a higher number of hydroxyl groups at the B-ring increased the activity slightly. […] The influence of the stereochemistry at C(2)–C(3) was studied by using GCG (the trans-epimer of EGCG).
as §1
DiFMUP assay for PRLs: In a final reaction volume of 100 μL the PRLs (50 nM final concentration) were incubated with decreasing concentrations of the inhibitory polyphenols for 30 minutes at 25°C. The buffer conditions were 108 mM TrisCl (pH 7.5), Triton 0.05% (v/v), DTT 27.0 mM, NaCl 811 mM. After the incubation time 20 μL DiFMUP (6,8-Difluoro-4-methylumbelliferyl phosphate) was added to reach a final concentration of 21 μM for PRL-3 and 24 μM for PRL-1 and PRL-2. On a Tecan safire2 (Tecan, Salzburg, Austria) plate reader dephosphorylation of the substrate to its fluorescent product was monitored by following the emission at 358 nm with excitation at 452 nm for 20 minutes. All measurements were done in triplicates, and the experiments were repeated at least three times. The slopes of the initial phases were obtained by linear regression of the data points. The normalized reaction rates were plotted versus the log of the inhibitor concentrations and the IC50 values were obtained by fitting the curves using the one site competition model of GraphPad Prism (GraphPad Software, Version 5). KM values were determined by measuring reaction kinetics of substrate dilution series. Initial velocities were plotted against DiFMUP concentration and the data was analyzed by Michaelis-Menten kinetics curve fitting of GraphPad Prism. A final DMSO content of 0.4% was maintained for the monomeric catechins. Due to the high water solubility of the procyanidins DMSO was not required and measurements were done in assay buffer only.

For a further assay, the target named is T3, PRL-1 (Homo sapiens, UniProt Q93096).
T3 construct: His-TEV (cleaved yes); made in house
T3 sequence (Q93096 1-173): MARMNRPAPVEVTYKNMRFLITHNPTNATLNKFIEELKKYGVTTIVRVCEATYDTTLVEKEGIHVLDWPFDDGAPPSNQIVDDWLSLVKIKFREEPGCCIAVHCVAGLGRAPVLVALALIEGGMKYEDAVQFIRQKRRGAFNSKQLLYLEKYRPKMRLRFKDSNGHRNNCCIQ
As to the kind of experiment: DiFMUP phosphatase activity assay for PRLs. Conditions: for IC50: 50 nM PRL-1, 30 min preincubation, 25°C, 24 μM DiFMUP, mean ± SEM (n = 3–5), read-out: IC50 (Ki) PRL-1.

Bounds are passed on as bounds.

We go through 2 compounds from publication PMC4520450, “Procyanidins Negatively Affect the Activity of the Phosphatases of Regenerating Liver” (PLoS ONE, 2015).

T1 sequence (P67775 whole entry): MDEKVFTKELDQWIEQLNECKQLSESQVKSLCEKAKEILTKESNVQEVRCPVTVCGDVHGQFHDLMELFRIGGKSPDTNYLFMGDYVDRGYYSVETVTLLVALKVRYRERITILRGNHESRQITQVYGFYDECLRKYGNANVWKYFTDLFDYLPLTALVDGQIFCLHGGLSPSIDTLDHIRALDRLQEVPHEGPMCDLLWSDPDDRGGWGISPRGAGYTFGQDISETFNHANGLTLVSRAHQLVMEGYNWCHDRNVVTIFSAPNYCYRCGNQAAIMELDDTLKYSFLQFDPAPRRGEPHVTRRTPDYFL
T1 sequence (P30153 2-589 partner limits assumed): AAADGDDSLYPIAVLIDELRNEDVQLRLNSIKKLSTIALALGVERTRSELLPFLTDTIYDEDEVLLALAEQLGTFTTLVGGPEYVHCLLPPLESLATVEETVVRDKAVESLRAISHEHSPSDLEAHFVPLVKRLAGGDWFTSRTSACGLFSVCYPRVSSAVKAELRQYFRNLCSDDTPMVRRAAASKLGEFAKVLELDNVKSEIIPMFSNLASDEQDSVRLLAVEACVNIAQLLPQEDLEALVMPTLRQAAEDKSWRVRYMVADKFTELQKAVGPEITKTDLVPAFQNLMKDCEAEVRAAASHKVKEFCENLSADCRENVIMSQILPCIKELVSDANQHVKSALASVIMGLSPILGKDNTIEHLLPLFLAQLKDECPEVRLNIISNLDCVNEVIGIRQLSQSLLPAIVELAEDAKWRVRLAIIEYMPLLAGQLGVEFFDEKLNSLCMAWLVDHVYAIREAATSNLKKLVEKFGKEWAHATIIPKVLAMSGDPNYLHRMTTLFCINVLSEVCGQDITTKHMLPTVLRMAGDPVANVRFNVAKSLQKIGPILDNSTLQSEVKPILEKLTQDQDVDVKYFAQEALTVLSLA

Regarding `Oc1cc(O)c2c(c1)O[C@H](c1ccc(O)c(O)c1)[C@@H](O)[C@@H]2c1c(O)cc(O)c2c1O[C@H](c1ccc(O)c(O)c1)[C@@H](O)C2` [Procyanidin B3 (8), Procyanidin B3], the IC50 on PP2A is over 1000 µM; on PRL-3, 127 ± 1.5 µM; at PRL-1, 3.3 ± 1.2 µM. Also, at PRL-1 (in vitro, from IC50 values), the “fold higher activity toward PRL-1 compared to PRL-3” value came out at 38 fold.
Consider `Oc1cc(O)c2c(c1)O[C@H](c1ccc(O)c(O)c1)[C@@H](O)[C@@H]2c1c(O)cc(O)c2c1O[C@H](c1ccc(O)c(O)c1)[C@@H](O)[C@@H]2c1c(O)cc(O)c2c1O[C@H](c1ccc(O)c(O)c1)[C@@H](O)C2` [Procyanidin C2 (9), Procyanidin C2], for which the IC50 came to 213 ± 72 µM at PP2A, 18.8 ± 4.5 µM at PRL-3 and 1.8 ± 1.1 µM at PRL-1.
